# Marks after values point to notes of the source that are not given here.
# What was measured:
# [1] = Retention of Pc IV in tumor tissue (pharmacokinetic data); type: in vivo; conditions: after administration
# [2] = tested on: skin lesions (early mycosis fungoides, squamous cell carcinoma); assay: Topical PcIV-PDT of skin lesions in patients; type: in vivo, human
# Experimental: PcIV solution concentrations were either 0.01 mg/mL or 0.05 mg/mL. One hour after administration of the PcIV solution, the skin lesions were exposed to a 675 nm laser, dose ranging from 50-100 J/cm^2. […] Two patients felt some heat over the treatment site during the first few minutes of laser exposure. […] Because Pc 4 is a photosensitizer, individual patient sun sensitivity was monitored by serial phototesting using solar simulated radiation. […] (see FIGS. 10a and 10b).
# [3] = tested on: RIF-1 (radiation-induced fibrosarcoma) tumors; assay: PDT of RIF-1 implanted tumors; type: in vivo, C3H/HeN mice; parameters: key to Tumor Responses at 24 hours: complete: no evidence of any tumor mass in any animal; only the scar from the photodynamic therapy was evident.; near complete: evidence of any tumor mass in four or five animals; only some tumor mass in one or two animals.; substantial: a significant tumor shrinkage occurred in all animals. In some animals the tumor response was complete, yet in others the response was not complete.; moderate: some tumor shrinkage was evident in some animals. In animals with some tumor shrinkage, scar formation was evident.; slight: some tumor decrease occurred in one or two mice; conditions: for Tumor Responses at 24 hours / Doubling Time of Initial Tumor Volume after PDT: 1 mg/kg in corn oil, 675 nm; for Tumor Responses at 24 hours: 135 J/cm^2, light 24 h after dosing; for Doubling Time of Initial Tumor Volume after PDT: 135 J/cm^2, controls 4 days
# Experimental: The relative effectiveness at reducing tumor volume of selected phthalocyanine compounds at a given dosage was compared in vivo. RIF-1, i.e., radiation-induced fibrosarcoma, tumors were implanted into the backs of C3H/HeN mice. One tumor was implanted per mouse. Each of the phthalocyanine compounds listed in Table 7 was sonicated and vortexed in corn oil to produce a suspension. When the tumors reached […] in diameter and 2-3 mm in thickness, each mouse received 1 mg/kg in 0.1 mL of the corn oil, of the phthalocyanine suspension. For comparison, select mice received a conventional photosensitizer; either 5 mg/kg of chloroaluminum phthalocyanine tetrasulfonate, herein also referred to as “AlPcTS” in phosphate buffered saline or 5 mg/kg of Photofrin®-II in 5% dextrose. Twenty-four hours after the photosensitizers were administered, the tumors were irradiated with visible radiation delivered by an argon-pumped dye laser. The mice that received a phthalocyanine photosensitizer received light having a wavelength of 675 nm and the mice that received the Photofrin® II photosensitizer received light having a wavelength of 630 nm. Each tumor received 135 J/cm^2 of radiation. Tumor size was measured every day using calipers. The initial tumor volume was 50±10 mm^3. Tumor volume was calculated according to the hemiellipsoid model by the formula: V=½(4π)/3×(½×(w/2))×h
# • complete—no evidence of any tumor mass in any animal; only the scar from the photodynamic therapy was evident. • near complete—evidence of […] in four or five animals; only some tumor mass in one or two animals. • substantial—a significant tumor shrinkage occurred in all animals. In some animals the tumor response was complete, yet in others the response was not complete. • moderate—some tumor shrinkage was evident in some animals. In animals with some tumor shrinkage, scar formation was evident. • slight—some tumor decrease occurred in one or two mice.
# [4] = tested on: RIF-1 tumors; assay: RIF-1 implanted tumors, PcIV followed by multiple exposures to light; type: in vivo, C3H/HeN mice
# Experimental: To overcome the regrowth, RIF-1 tumors were implanted in C3H/HeN mice, and the mice were treated with PcIV followed by multiple exposures to light. For multiple exposures to light to be successful, the tumor tissue must retain sufficient levels of the photosensitizer over the exposure period.
# [5] = tested on: Chinese hamster V79-379 lung fibroblasts; assay: Uptake of phthalocyanines into V79 cells; conditions: for Uptake Into V79 Cells, 1 μM / Uptake Into V79 Cells, 4 μM: 18 hours; for n Moles/10^6 Cells/μM (composite uptake value): V79 cells, average of all data, asterisk: listed value is for 1 μM, average would be higher
# Outline: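 V79-379 cells were incubated with phthalocyanine for 18 h, typically at 1, 2 and/or 4 μM. Cells collected on filters were extracted into ethanol and absorbance read at the peak, usually 668 nm. Values are nmol per 10^6 cells, using ε 2.93×10^5.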
# [6] = eleven patients, topical PcIV-PDT
smiles,measurement,setting,value
"CN(C)CCC[Si](C)(C)O[Si]1(O)n2c3c4ccccc4c2N=C2N=C(N=c4c5ccccc5c(n41)=NC1=NC(=N3)c3ccccc31)c1ccccc12 (stereo not shown) [Compound IV, HOSiPcOSi(CH3)2(CH2)3N(CH3)2]",retention in tumor tissue,[1],retained in tumor tissue even after 7 days
same,clinical response of lesions (erythema and infiltration),[2]; [6],Two patients showed a minimal decrease in erythema and infiltration of their lesions
same,cures,[2]; [6],No cures have been achieved to date
same,TUNEL positivity in lesional skin biopsies,"[2]; one patient with some clinical response, 24 hours after treatment",increase in TUNEL positivity along the superficial portion of the lesion
same,changes in sunburn threshold or minimum erythema dose (MED),[2]; serial phototesting with solar simulated radiation,No significant changes were observed
same,adverse effects,"[2]; topical 0.01 or 0.05 mg/mL, 675 nm laser 50-100 J/cm^2 one hour later, up to two weeks",No significant adverse effects were observed
same,Tumor Responses at 24 hours,[3],near complete
same,Doubling Time of Initial Tumor Volume after PDT,[3],16 days
same,Histological examination of treated tumors,[3]; RIF-1 tumors after PDT,presence of apoptotic bodies in the tumor
same,% of Mice Surviving,"[4]; 1 mg/kg in DPPC liposomes, 30 days, day of exposure 2",100%
same,% of Mice Surviving,"[4]; 1 mg/kg in DPPC liposomes, 30 days, days of exposure 2, 3, 4, 5, and 6",0%
same,% of Mice Surviving,"[4]; 1 mg/kg in DPPC liposomes, 30 days, days of exposure 2, 3, and 4",0%
same,% of Mice Surviving,"[4]; 1 mg/kg in DPPC liposomes, 30 days, days of exposure 2-6",0%
same,% of Mice Surviving,"[4]; 1 mg/kg in DPPC liposomes, 30 days, days of exposure 2 and 3",100%
same,% of Mice Surviving,"[4]; 1 mg/kg in DPPC liposomes, 30 days, days of exposure 2 and 7",100%
same,% of Mice Surviving,"[4]; 1 mg/kg in DPPC liposomes, 120 days, days of exposure 2, 3, 4, 5, and 6",0%
same,% of Mice Surviving,"[4]; 1 mg/kg in DPPC liposomes, 120 days, days of exposure 2, 3, and 4",0%
same,% of Mice Surviving,"[4]; 1 mg/kg in DPPC liposomes, 120 days, days of exposure 2-6",0%
same,% of Mice Surviving,"[4]; 1 mg/kg in corn oil, 15 days, day of exposure 2",100%
same,% of Mice Surviving,"[4]; 1 mg/kg in corn oil, 15 days, days of exposure 2, 3, 4, 5, and 6",100%
same,% of Mice Surviving,"[4]; 1 mg/kg in corn oil, 15 days, days of exposure 2, 3, and 4",100%
same,% of Mice Surviving,"[4]; 1 mg/kg in corn oil, 15 days, days of exposure 2-6",100%
same,% of Mice Surviving,"[4]; 1 mg/kg in corn oil, 15 days, days of exposure 2 and 3",100%
same,% of Mice Surviving,"[4]; 1 mg/kg in corn oil, 15 days, days of exposure 2 and 7",100%
same,tumor regrowth at sacrifice,"[4]; DPPC liposomes, three to five irradiations, 300 days after the light treatment",no evidence of tumor regrowth
same,tumor cure,"[4]; entrapped in DPPC liposomes, mice irradiated three, four or five times at an interval of 24 hours",complete tumor cure
same,tumor regrowth,"[4]; given in corn oil, all the multiple exposure protocols",regrowth of tumors was evident 15 days after photodynamic therapy
"CN(C)CCC[Si](C)(C)O[Si]1(O[Si](C)(C)CCCN(C)C)n2c3c4ccccc4c2N=C2N=C(N=c4c5ccccc5c(n41)=NC1=NC(=N3)c3ccccc31)c1ccccc12 [Compound XII, SiPc[OSi(CH3)2(CH2)3N(CH3)2]2]","Uptake Into V79 Cells, 1 μM",[5],2.1 ± 1.2 n Moles/10^6 cells
same,"Uptake Into V79 Cells, 4 μM",[5],4.6 ± 1.5 n Moles/10^6 cells
same,n Moles/10^6 Cells/μM (composite uptake value),[5],1.6 n Moles/10^6 Cells/μM
same,Tumor Responses at 24 hours,[3],complete
same,Doubling Time of Initial Tumor Volume after PDT,[3],20 days
"CCN(CCC[Si](C)(C)O[Si]1(O[Si](C)(C)CCCN(CC)CCN(C)C)n2c3c4ccccc4c2N=C2N=C(N=c4c5ccccc5c(n41)=NC1=NC(=N3)c3ccccc31)c1ccccc12)CCN(C)C [Compound XVIII, SiPc[OSi(CH3)2(CH2)3N(CH2CH3)(CH2)2N(CH3)2]2]","Uptake Into V79 Cells, 1 μM",[5],0.3 ± 0.1 n Moles/10^6 cells
same,"Uptake Into V79 Cells, 4 μM",[5],3.6 ± 0.6 n Moles/10^6 cells
same,n Moles/10^6 Cells/μM (composite uptake value),[5],0.3* n Moles/10^6 Cells/μM
same,Tumor Responses at 24 hours,[3],near complete
same,Doubling Time of Initial Tumor Volume after PDT,[3],12 days
